Data published in patent publication US6423689B1, “Peptidyl calcium channel blockers” (Warner-Lambert Company, priority 1997, dated 2002).

Target: T1, N-type Ca2+ channels in IMR-32 cells (Homo sapiens, UniProt Q00975)
T1 construct: host or cells: IMR-32 cells, differentiated with dibutyryl cAMP and bromodeoxyuridine
Test: Inhibition of N-type calcium flux in IMR-32 cells (Indo-1 fluorescence, nitrendipine present)
Assay type: cell-based
Conditions: 1 μM
Description: Measurement of N-type Ca^2+ Channel Blocking Potencies of Compounds in IMR-32 Cells Using the Fluorescent Ca^2+ Indicator Indo-1
IMR-32 cells are a human tumoral cell line of neural origin. […] Calcium flux into these cells may be induced by stimulation with elevated potassium concentrations. The L-channel component of calcium flux may be blocked by adding 5 μM nitrendipine. The remaining component of calcium entry into the IMR-32 cells is due to calcium flux through N-type calcium channels. Intracellular calcium concentrations are measured using the fluorescent calcium indicator Indo 1. The effect of drug concentration on calcium uptake is studied.
The IMR-32 cell line was obtained from the American Type Culture Collection (Rockville, Md.). Cells were grown in Eagle's Minimum Essential Medium with Eagle's salts supplemented with 10% fetal bovine serum, 2 mM L-Gln and antibiotic/antimycotic mixture (Gibco). […] After 7 to 13 days of differentiation, cells were detached using 0.5 mM EDTA and loaded with 5 μM Indo-1 acetoxymethyl ester (Molecular Probes, Eugene, OR) at […] for 45 minutes. Loaded cells were washed twice, resuspended (˜10^7 cells/mL) in assay buffer (10 mM HEPES/Tris pH 7.4 in Hank's Balanced Salt Solution without bicarbonate or phenol red containing 0.5% bovine serum albumin) and kept on ice until use. Fluorescence measurements were carried out in a Photon Technology International (PTI, South Brunswick, N.J.) Model RF-F3004 spectrofluorometer with dual emission monochromators using excitation at 350 nm and emission at 400 and 490 nm. The instrument was equipped with a thermostated cuvette holder with stirring capabilities as well as with a computer-controlled pump which allowed for reagent addition during measurement. Instrument control and data collection was done by PTI's OSCAR software running on an IBM compatible computer. […] Samples were incubated for 10 minutes at 30° C. and then aliquoted into three 10×10 mm disposable acrylic cuvettes. Emission signals at 400 and 490 nm were acquired from each cuvette at 30° C. for 50 seconds. At 20 seconds after the start of reading, cells were depolarized by the addition of 160 μL of stimulation solution (1M KCl, 68 mM CaCl2) to the cuvette via the computer-controlled pump. Ratio of dual emission signals (400 nm/490 nm), which is proportional to intracellular Ca^2+ concentration, was plotted against time, and the difference between maximal response after stimulation and basal value (before stimulation) was determined. Values obtained in this way were plotted as a function of drug concentration. IC50 values of test compounds were calculated by fitting a four-parameter logistic function to the data using the least squares method.

T1 sequence (Q00975 whole entry): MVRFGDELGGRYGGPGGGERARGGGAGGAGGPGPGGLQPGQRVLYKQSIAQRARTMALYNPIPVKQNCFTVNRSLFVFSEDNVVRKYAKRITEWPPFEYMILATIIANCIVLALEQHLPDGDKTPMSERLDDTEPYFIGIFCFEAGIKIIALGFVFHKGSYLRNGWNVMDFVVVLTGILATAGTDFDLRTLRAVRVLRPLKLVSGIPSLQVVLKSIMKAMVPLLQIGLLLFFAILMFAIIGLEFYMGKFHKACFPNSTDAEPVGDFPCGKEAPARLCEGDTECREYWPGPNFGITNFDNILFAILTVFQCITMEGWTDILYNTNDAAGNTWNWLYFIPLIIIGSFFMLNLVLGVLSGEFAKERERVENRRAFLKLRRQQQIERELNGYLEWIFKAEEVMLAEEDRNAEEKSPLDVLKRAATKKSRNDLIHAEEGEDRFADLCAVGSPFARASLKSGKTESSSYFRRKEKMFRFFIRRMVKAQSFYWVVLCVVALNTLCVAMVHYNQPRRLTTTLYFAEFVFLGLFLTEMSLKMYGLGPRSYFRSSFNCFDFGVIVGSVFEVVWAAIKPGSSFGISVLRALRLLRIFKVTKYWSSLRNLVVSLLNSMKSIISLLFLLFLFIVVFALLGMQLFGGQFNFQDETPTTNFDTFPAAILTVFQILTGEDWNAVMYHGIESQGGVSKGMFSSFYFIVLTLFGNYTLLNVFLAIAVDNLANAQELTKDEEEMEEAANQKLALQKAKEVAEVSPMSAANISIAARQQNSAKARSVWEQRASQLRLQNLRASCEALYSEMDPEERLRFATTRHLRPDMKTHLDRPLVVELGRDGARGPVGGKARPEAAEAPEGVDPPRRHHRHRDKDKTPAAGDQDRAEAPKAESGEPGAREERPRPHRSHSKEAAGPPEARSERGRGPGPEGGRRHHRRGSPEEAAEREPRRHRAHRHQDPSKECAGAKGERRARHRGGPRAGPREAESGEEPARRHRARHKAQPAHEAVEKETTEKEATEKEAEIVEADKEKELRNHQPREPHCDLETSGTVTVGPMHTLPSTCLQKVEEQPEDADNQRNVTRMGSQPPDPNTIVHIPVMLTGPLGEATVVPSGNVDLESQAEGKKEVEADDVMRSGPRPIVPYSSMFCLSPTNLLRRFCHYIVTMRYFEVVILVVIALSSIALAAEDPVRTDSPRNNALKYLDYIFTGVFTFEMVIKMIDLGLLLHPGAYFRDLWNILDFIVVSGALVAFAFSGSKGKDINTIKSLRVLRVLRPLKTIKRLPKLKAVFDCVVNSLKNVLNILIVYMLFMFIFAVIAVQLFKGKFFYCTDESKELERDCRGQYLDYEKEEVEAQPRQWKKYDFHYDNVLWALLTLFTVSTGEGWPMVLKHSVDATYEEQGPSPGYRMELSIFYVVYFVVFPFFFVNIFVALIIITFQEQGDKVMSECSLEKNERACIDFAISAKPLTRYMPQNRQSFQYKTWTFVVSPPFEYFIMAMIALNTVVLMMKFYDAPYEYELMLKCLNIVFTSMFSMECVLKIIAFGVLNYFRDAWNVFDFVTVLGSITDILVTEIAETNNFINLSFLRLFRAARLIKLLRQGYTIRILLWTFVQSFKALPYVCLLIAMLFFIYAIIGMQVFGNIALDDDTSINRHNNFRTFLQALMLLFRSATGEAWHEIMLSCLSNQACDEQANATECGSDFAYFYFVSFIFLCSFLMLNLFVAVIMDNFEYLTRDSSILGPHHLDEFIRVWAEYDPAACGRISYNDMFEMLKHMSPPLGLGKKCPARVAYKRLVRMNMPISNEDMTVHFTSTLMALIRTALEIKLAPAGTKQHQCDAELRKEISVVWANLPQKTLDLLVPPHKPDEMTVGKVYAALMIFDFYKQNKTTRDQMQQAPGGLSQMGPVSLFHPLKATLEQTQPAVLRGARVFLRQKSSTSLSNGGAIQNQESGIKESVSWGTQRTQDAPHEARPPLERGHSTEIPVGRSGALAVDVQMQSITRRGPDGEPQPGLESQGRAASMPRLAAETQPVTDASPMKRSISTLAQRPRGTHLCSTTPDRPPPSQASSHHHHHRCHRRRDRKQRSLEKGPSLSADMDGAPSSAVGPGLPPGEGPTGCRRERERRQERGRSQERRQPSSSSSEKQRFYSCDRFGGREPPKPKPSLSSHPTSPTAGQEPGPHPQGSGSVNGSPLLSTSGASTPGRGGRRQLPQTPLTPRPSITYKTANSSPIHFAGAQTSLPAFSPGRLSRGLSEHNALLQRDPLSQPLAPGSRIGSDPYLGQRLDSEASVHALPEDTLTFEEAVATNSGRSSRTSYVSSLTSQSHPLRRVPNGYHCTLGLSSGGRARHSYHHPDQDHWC
T1 sequence (P54289 25-956 partner limits assumed): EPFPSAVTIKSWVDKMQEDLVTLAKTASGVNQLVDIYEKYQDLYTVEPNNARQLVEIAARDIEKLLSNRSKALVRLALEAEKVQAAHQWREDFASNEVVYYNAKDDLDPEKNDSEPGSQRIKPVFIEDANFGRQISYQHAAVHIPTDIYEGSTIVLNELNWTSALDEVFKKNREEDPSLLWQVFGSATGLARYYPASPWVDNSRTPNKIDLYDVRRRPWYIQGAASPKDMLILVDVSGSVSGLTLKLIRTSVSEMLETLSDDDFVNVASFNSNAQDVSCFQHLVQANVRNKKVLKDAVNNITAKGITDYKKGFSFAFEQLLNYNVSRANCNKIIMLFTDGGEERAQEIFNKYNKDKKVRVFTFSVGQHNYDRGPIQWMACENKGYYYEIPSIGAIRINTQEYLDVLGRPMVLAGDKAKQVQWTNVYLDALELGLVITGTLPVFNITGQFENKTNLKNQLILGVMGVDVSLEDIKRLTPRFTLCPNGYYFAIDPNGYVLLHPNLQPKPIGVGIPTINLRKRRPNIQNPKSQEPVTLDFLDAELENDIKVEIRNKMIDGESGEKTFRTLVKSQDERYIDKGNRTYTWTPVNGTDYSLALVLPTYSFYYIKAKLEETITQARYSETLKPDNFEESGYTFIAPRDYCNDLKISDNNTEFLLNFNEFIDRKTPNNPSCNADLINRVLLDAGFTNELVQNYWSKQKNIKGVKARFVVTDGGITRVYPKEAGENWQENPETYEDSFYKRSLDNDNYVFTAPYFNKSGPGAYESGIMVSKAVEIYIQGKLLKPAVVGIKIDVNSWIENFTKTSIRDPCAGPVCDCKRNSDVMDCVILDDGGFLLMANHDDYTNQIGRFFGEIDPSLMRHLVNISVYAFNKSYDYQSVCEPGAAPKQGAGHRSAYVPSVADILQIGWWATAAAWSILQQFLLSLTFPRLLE
T1 sequence (P54289 957-1103 partner limits assumed): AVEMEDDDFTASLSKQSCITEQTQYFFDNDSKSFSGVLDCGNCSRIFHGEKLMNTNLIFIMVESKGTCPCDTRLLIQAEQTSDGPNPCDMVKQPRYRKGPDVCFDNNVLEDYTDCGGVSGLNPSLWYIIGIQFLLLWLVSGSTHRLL
T1 sequence (P54284 whole entry partner): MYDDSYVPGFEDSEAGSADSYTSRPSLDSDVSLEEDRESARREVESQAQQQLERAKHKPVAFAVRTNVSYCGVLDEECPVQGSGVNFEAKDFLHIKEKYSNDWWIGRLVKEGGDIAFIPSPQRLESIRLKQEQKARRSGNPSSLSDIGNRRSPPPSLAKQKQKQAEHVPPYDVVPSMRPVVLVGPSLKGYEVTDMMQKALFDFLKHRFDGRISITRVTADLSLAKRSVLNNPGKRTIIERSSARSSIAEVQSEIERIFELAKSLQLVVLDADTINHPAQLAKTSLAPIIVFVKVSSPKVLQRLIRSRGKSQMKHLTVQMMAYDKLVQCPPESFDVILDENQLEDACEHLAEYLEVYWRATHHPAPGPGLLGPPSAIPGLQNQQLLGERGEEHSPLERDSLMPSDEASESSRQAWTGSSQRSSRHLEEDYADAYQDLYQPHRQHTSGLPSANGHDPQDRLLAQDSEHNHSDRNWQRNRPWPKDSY

Inhibition of Calcium Flux in IMR-32 Cells % Inhibition at 1 μM | SMILES
31% | CSc1ccc(NC(=O)N[C@@H](CC(C)C)C(=O)N[C@@H](Cc2ccc(OCc3ccccc3)cc2)C(=O)OC(C)(C)C)cc1 (relative stereo) [Example 64, [S-(R*,R*)]-3-(4-Benzyloxy-phenyl)-2-{4-methyl-2-[3-(4-methylsulfanyl-phenyl)-ureido]-pentanoylamino}-propionic acid tert-butyl ester]
28% | CC(C)C[C@H](NC(=O)Nc1ccc(Oc2ccccc2)cc1)C(=O)N[C@@H](Cc1ccc(OCc2ccccc2)cc1)C(=O)OC(C)(C)C (relative stereo) [Example 65, [S-(R*,R*)]-3-(4-Benzyloxy-phenyl)-2-{4-methyl-2-[3-(4-phenoxy-phenyl)-ureido]pentanoylamino}-propionic acid tert-butyl ester]
31% | COc1ccc(NC(=O)N[C@@H](CC(C)C)C(=O)N[C@@H](Cc2ccc(OCc3ccccc3)cc2)C(=O)OC(C)(C)C)cc1 (relative stereo) [Example 68, [S-(R*,R*)]-3-(4-Benzyloxy-phenyl)-2-{2-[3-(4-methoxy-phenyl)-ureido]-4-methyl-pentanoylamino}-propionic acid tert-butyl ester]
31% | CC(C)C[C@H](NC(=O)Nc1ccc(F)cc1F)C(=O)N[C@@H](Cc1ccc(OCc2ccccc2)cc1)C(=O)OC(C)(C)C (relative stereo) [Example 69, [S-(R*,R*)]-3-(4-Benzyloxy-phenyl)-2-{2-[3-(2,4-difluoro-phenyl)-ureido]-4-methyl-pentanoylamino}-propionic acid tert-butyl ester]
25% | CC(C)C[C@H](NC(=O)Nc1ccc(C(F)(F)F)cc1)C(=O)N[C@@H](Cc1ccc(OCc2ccccc2)cc1)C(=O)OC(C)(C)C (relative stereo) [Example 70, [S-(R*,R*)]-3-(4-Benzyloxy-phenyl)-2-{4-methyl-2-[3-(4-trifluoromethyl-phenyl)-ureido]-pentanoylamino}-propionic acid tert-butyl ester]
55% | COc1ccccc1NC(=O)N[C@@H](CC(C)C)C(=O)N[C@@H](Cc1ccc(OCc2ccccc2)cc1)C(=O)OC(C)(C)C (relative stereo) [Example 71, [S-(R*,R*)]-3-(4-Benzyloxy-phenyl)-2-{2-[3-(2-methoxy-phenyl)-ureido]-4-methyl-pentanoylamino}-propionic acid tert-butyl ester]
31% | Cc1cc(C)cc(NC(=O)N[C@@H](CC(C)C)C(=O)N[C@@H](Cc2ccc(OCc3ccccc3)cc2)C(=O)OC(C)(C)C)c1 (relative stereo) [Example 72, [S-(R*,R*)]-3-(4-Benzyloxy-phenyl)-2-{2-[3-(3,5-dimethyl-phenyl)-ureido]-4-methyl-pentanoylamino}-propionic acid tert-butyl ester]
60% | CC(C)C[C@H](NC(=O)Nc1ccccc1Cl)C(=O)N[C@@H](Cc1ccc(OCc2ccccc2)cc1)C(=O)OC(C)(C)C (relative stereo) [Example 73, [S-(R*,R*)]-3-(4-Benzyloxy-phenyl)-2-{2-[3-(2-chloro-phenyl)-ureido]-4-methylpentanoylamino}-propionic acid tert-butyl ester]
45% | CC(C)C[C@H](NC(=O)Nc1cccc(Cl)c1)C(=O)N[C@@H](Cc1ccc(OCc2ccccc2)cc1)C(=O)OC(C)(C)C (relative stereo) [Example 74, [S-(R*,R*)]-3-(4-Benzyloxy-phenyl)-2-{2-[3-(3-chloro-phenyl)-ureido]-4-methyl-pentanoylamino}-propionic acid tert-butyl ester]
28% | CC(C)C[C@H](NC(=O)NC1CC1c1ccccc1)C(=O)N[C@@H](Cc1ccc(OCc2ccccc2)cc1)C(=O)OC(C)(C)C (relative stereo) [Example 75, [S-(R*,R*)]-3-(4-Benzyloxy-phenyl)-2-{4-methyl-2-[3-(2-phenyl-cyclopropyl)-ureido]-pentanoylamino}-propionic acid tert-butyl ester]
27% | CC(C)C[C@H](NC(=O)Nc1cccc(C(F)(F)F)c1)C(=O)N[C@@H](Cc1ccc(OCc2ccccc2)cc1)C(=O)OC(C)(C)C (relative stereo) [Example 76, [S-(R*,R*)]-3-(4-Benzyloxy-phenyl)-2-{4-methyl-2-[3-(3-trifluoromethyl-phenyl)-ureido]-pentanoylamino}-propionic acid tert-butyl ester]
24% | CC(C)C[C@H](NC(=O)Nc1ccc(Cl)c(C(F)(F)F)c1)C(=O)N[C@@H](Cc1ccc(OCc2ccccc2)cc1)C(=O)OC(C)(C)C (relative stereo) [Example 78, [S-(R*,R*)]-3-(4-Benzyloxy-phenyl)-2-{2-[3-(4-chloro-3-trifluoromethyl-phenyl)-ureido]-4-methyl-pentanoylamino}-propionic acid tert-butyl ester]
23% | CC(C)C[C@H](NC(=O)Nc1cccc2ccccc12)C(=O)N[C@@H](Cc1ccc(OCc2ccccc2)cc1)C(=O)OC(C)(C)C (relative stereo) [Example 79, [S-(R*,R*)]-3-(4-Benzyloxy-phenyl)-2-[4-methyl-2-(3-naphthalen-1-yl-ureido)-pentanoylamino]-propionic acid tert-butyl ester]
40% | CC(C)C[C@H](NC(=O)Nc1ccc(Cl)cc1)C(=O)N[C@@H](Cc1ccc(OCc2ccccc2)cc1)C(=O)OC(C)(C)C (relative stereo) [Example 80, [S-(R*,R*)]-3-(4-Benzyloxy-phenyl)-2-{2-[3-(4-chloro-phenyl)-ureido]-4-methyl-pentanoylamino}-propionic acid tert-butyl ester]
32% | CC(C)C[C@H](NC(=O)Nc1cccc(Cl)c1Cl)C(=O)N[C@@H](Cc1ccc(OCc2ccccc2)cc1)C(=O)OC(C)(C)C (relative stereo) [Example 81, [S-(R*,R*)]-3-(4-Benzyloxy-phenyl)-2-{2-[3-(2,3-dichloro-phenyl)-ureido]-4-methyl-pentanoylamino}-propionic acid tert-butyl ester]
55% | CC(C)C[C@H](NC(=O)Nc1ccc(Cl)cc1Cl)C(=O)N[C@@H](Cc1ccc(OCc2ccccc2)cc1)C(=O)OC(C)(C)C (relative stereo) [Example 82, [S-(R*,R*)]-3-(4-Benzyloxy-phenyl)-2-{2-[3-(2,4-dichloro-phenyl)-ureido]-4-methyl-pentanoylamino}-propionic acid tert-butyl ester]
19% | CC(C)C[C@H](NC(=O)Nc1cc(C(F)(F)F)cc(C(F)(F)F)c1)C(=O)N[C@@H](Cc1ccc(OCc2ccccc2)cc1)C(=O)OC(C)(C)C (relative stereo) [Example 83, [S-(R*,R*)]-3-(4-Benzyloxy-phenyl)-2-{2-[3-(3,5-bis-trifluoromethyl-phenyl)-ureido]-4-methyl-pentanoylamino}-propionic acid tert-butyl ester]
49% | CC(C)C[C@H](NC(=O)Nc1ccc(Br)cc1)C(=O)N[C@@H](Cc1ccc(OCc2ccccc2)cc1)C(=O)OC(C)(C)C (relative stereo) [Example 84, [S-(R*,R*)]-3-(4-Benzyloxy-phenyl)-2-{2-[3-(^4-bromo-phenyl)-ureido]-4-methyl-pentanoylamino}-propionic acid tert-butyl ester]
30% | CC(C)C[C@H](NC(=O)Nc1ccc(Cl)c(Cl)c1)C(=O)N[C@@H](Cc1ccc(OCc2ccccc2)cc1)C(=O)OC(C)(C)C (relative stereo) [Example 85, [S-(R*,R*)]-3-(4-Benzyloxy-phenyl)-2-{2-[3-(3,4-dichloro-phenyl)-ureido]-4-methyl-pentanoylamino}-propionic acid tert-butyl ester]

SMILES | Inhibition of Calcium Flux in IMR-32 Cells % Inhibition at 1 μM
CCOC(=O)c1ccc(NC(=O)N[C@@H](CC(C)C)C(=O)N[C@@H](Cc2ccc(OCc3ccccc3)cc2)C(=O)OC(C)(C)C)cc1 (relative stereo) [Example 77, [S-(R*,R*)]-4-(3-{1-[2-(4-Benzyloxy-phenyl)-1tert-butoxycarbonyl-ethylcarbamoyl]-3-methylbutyl}-ureido)-benzoic acid ethyl ester] | 22%
